Measured values reported in ChEMBL document CHEMBL3045881, “(Hetero)aroyl esters of 2-(N-phthalimido)ethanol and analogues: parallel synthesis, anti-HIV-1 activity and cytotoxicity” (Med Chem Res, 2010).
Active and inactive are the calls of the source. No cut-off for these calls is given here.

Key:
[1] = tested on: Human immunodeficiency virus 1; test: Antiviral activity against wild type Human immunodeficiency virus 1 infected human MT4 cells assessed as inhibition of virus-induced cytopathic effect after 4 days by MTT assay; assay type: functional, organism-based; conditions: Human immunodeficiency virus 1, MT4, 96 h
[2] = Cytotoxicity against mock infected Homo sapiens (human) MT4 cells assessed as cell viability by MTT assay; assay type: cell-based
[3] = tested on: Human immunodeficiency virus 1; test: Antiviral activity against Human immunodeficiency virus 1 harboring reverse transcriptase K103N, Y181C double mutant infected human MT4 assessed as inhibition of virus-induced cytopathic effect after 4 days by MTT assay; assay type: functional, organism-based
[4] = tested on: Human immunodeficiency virus 1; test: Antiviral activity against efavirenz-resistant Human immunodeficiency virus 1 harboring reverse transcriptase K103R, V179D, P225H triple mutant infected human MT4 assessed as inhibition of virus-induced cytopathic effect after 4 days by MTT assay; assay type: functional, organism-based
[5] = tested on: Human immunodeficiency virus 1; test: Antiviral activity against Human immunodeficiency virus 1 harboring reverse transcriptase Y181C mutant infected human MT4 assessed as inhibition of virus-induced cytopathic effect after 4 days by MTT assay; assay type: functional, organism-based; conditions: Human immunodeficiency virus 1, 96 h

SMILES | EC50 [1] | CC50 [2] | Activity [3] | Activity [4] | EC50 [5]
O=C(OCCN1C(=O)c2ccccc2C1=O)c1c(F)cccc1F | 49 µM | > 100 µM |  |  | 
O=C(OCCN1C(=O)c2ccccc2C1=O)c1cc([N+](=O)[O-])ccc1F | > 100 µM | > 100 µM |  |  | 
O=C(OCCN1C(=O)c2ccccc2C1=O)c1cccnc1Cl | > 100 µM | > 100 µM |  |  | 
O=C(OCCN1C(=O)c2ccccc2C1=O)c1ccc(Cl)c([N+](=O)[O-])c1 | 0.7 µM | > 100 µM |  |  | 
O=C(OCCN1C(=O)c2ccccc2C1=O)c1cccc(Cl)c1 | 93 µM | > 100 µM |  |  | 
O=C(OCN1C(=O)c2ccccc2C1=O)c1ccc(Cl)c([N+](=O)[O-])c1 | > 11 µM | 11 µM |  |  | 
O=C(OCCN1C(=O)[C@H]2CC=CC[C@H]2C1=O)c1ccc(Cl)c([N+](=O)[O-])c1 | > 36 µM | 36 µM |  |  | 
O=C(OCCN1C(=O)c2ccccc2C1=O)c1cc(Cl)ccc1F | > 100 µM | > 100 µM |  |  | 
O=C(OCCCN1C(=O)c2ccccc2C1=O)c1cc(F)ccc1F | > 100 µM | > 100 µM |  |  | 
O=C(OCCN1C(=O)c2ccccc2C1=O)c1cc(F)ccc1Cl | > 100 µM | > 100 µM |  |  | 
O=C(OCCOc1ccc(Br)cc1)c1ccc(Cl)c([N+](=O)[O-])c1 | > 59 µM | 59 µM |  |  | 
O=C(OCN1C(=O)c2ccccc2C1=O)c1cc(F)ccc1F | > 100 µM | > 100 µM |  |  | 
O=C(OCCN1C(=O)c2ccccc2C1=O)c1ccc(F)c(F)c1 | > 100 µM | > 100 µM |  |  | 
Cc1cc(C(=O)OCCN2C(=O)c3ccccc3C2=O)c(C)o1 | 28 µM | > 100 µM |  |  | 
O=C(OC1Cc2cccc3cccc1c23)c1ccc(Cl)c([N+](=O)[O-])c1 (racemic) | > 100 µM | 1.6 µM |  |  | 
CC(C)(C)c1ccc(C(=O)OCCN2C(=O)c3ccccc3C2=O)cc1 | > 92 µM | 92 µM |  |  | 
O=C(OCCN1C(=O)c2ccccc2C1=O)c1cc(F)ccc1Br | 35 µM | > 100 µM | inactive | inactive | 90 µM
O=C(OCCN1C(=O)c2ccccc2C1=O)c1cc([N+](=O)[O-])ccc1Cl | > 30 µM | 30 µM |  |  | 
O=C(OCCN1C(=O)c2ccccc2C1=O)c1ccccc1Cl | 80 µM | > 100 µM |  |  | 
Cc1cccc(C(=O)OCCN2C(=O)c3ccccc3C2=O)c1 | 82 µM | > 100 µM |  |  | 
O=C(OCCN1C(=O)[C@H]2CC=CC[C@H]2C1=O)c1cc(F)ccc1F | > 100 µM | > 100 µM |  |  | 
Cc1cc(C(=O)OC2Cc3cccc4cccc2c34)ccc1Br (racemic) | > 100 µM | 8 µM |  |  | 
CC(CN1C(=O)c2ccccc2C1=O)OC(=O)c1cc(F)ccc1F (racemic) | > 100 µM | > 100 µM |  |  | 
CCC(C(=O)OCCN1C(=O)c2ccccc2C1=O)c1ccccc1 (racemic) | 16 µM | > 100 µM |  |  | 
O=C(OCCS(=O)(=O)c1ccccc1)c1ccc(Cl)c(Cl)c1 | > 19 µM | 19 µM |  |  | 
O=C(OCCN1C(=O)c2ccccc2C1=O)c1ccc(Br)cc1 | > 100 µM | > 100 µM |  |  | 
O=C(OCCN1C(=O)c2ccccc2C1=O)c1ccc([N+](=O)[O-])cc1Cl | 15 µM | > 100 µM |  |  | 
O=C(OCCN1C(=O)c2ccccc2C1=O)c1ccc(F)cc1F | > 100 µM | > 100 µM |  |  | 

SMILES | EC50 [1] | CC50 [2] | Activity [3] | Activity [4] | EC50 [5]
O=C(OCCN1C(=O)c2ccccc2C1=O)c1ccc(Cl)c(Cl)c1 | 0.7 µM | > 100 µM |  |  | 
O=C(OCCN1C(=O)c2ccccc2C1=O)c1cc(Cl)cc(Cl)c1 | 27 µM | > 100 µM |  |  | 
O=C(OCCN1C(=O)[C@H]2CCCC[C@H]2C1=O)c1ccc(Cl)c([N+](=O)[O-])c1 | > 28 µM | 28 µM |  |  | 
O=C(OCCOc1ccc([N+](=O)[O-])cc1)c1ccc(Cl)c([N+](=O)[O-])c1 | > 47 µM | 47 µM |  |  | 
CC(COC(=O)c1cc(F)ccc1F)N1C(=O)c2ccccc2C1=O (racemic) | > 100 µM | > 100 µM |  |  | 
O=C(OCCN1C(=O)c2ccccc2C1=O)c1cccc(F)c1 | 75 µM | > 100 µM |  |  | 
O=C(OCCN1C(=O)c2ccccc2C1=O)c1cc(F)ccc1F | 0.2 µM | > 100 µM |  |  | 
O=C(OCCN1C(=O)c2ccccc2C1=O)c1ccccc1[N+](=O)[O-] | 80 µM | > 100 µM |  |  | 
CC(C)(C)c1ccc2c(c1)C(=O)N(CCOC(=O)c1cc(F)ccc1F)C2=O | > 100 µM | > 100 µM |  |  | 
Cc1cc(C(=O)OCCN2C(=O)c3ccccc3C2=O)ccc1Br | 60 µM | > 100 µM |  |  | 
O=C(/C=C/c1ccccc1)OCCN1C(=O)c2ccccc2C1=O | 50 µM | > 100 µM |  |  | 
O=C(OCCN1C(=O)c2ccccc2C1=O)c1ccc2ccccc2c1 | > 100 µM | > 100 µM |  |  | 
O=C(OC1Cc2cccc3cccc1c23)c1ccc(Cl)c(Cl)c1 (racemic) | > 100 µM | 42 µM |  |  | 
Cc1ccc2c(c1)C(=O)N(CCOC(=O)c1cc(F)ccc1F)C2=O | > 100 µM | > 100 µM |  |  | 
CC(CN1C(=O)c2ccccc2C1=O)OC(=O)c1ccc(Cl)c([N+](=O)[O-])c1 (racemic) | > 34 µM | 34 µM |  |  | 
O=C(OCCN1C(=O)[C@H]2CCCC[C@H]2C1=O)c1cc(F)ccc1F | > 100 µM | > 100 µM |  |  | 
O=C(OCCN1C(=O)c2ccccc2C1=O)c1cc(C(F)(F)F)ccc1F | > 100 µM | > 100 µM |  |  | 
O=C(OCCN1C(=O)c2ccccc2C1=O)c1cc(F)cc(F)c1 | > 100 µM | > 100 µM |  |  | 
O=C(OCCCN1C(=O)c2ccccc2C1=O)c1ccc(Cl)c([N+](=O)[O-])c1 | > 100 µM | > 100 µM |  |  | 
O=C(OCCN1C(=O)c2ccccc2C1=O)c1ccccc1 | 55 µM | > 100 µM |  |  | 
CCCCCc1ccc(C(=O)OCCN2C(=O)c3ccccc3C2=O)cc1 | 14 µM | > 100 µM |  |  | 
Cc1ccc2c(c1)C(=O)N(CCOC(=O)c1ccc(Cl)c([N+](=O)[O-])c1)C2=O | > 81 µM | 81 µM |  |  | 
O=C(OCCN1C(=O)c2ccccc2C1=O)c1cccc([N+](=O)[O-])c1 | 69 µM | > 100 µM |  |  | 
Cc1ccc(F)cc1C(=O)OCCN1C(=O)c2ccccc2C1=O | 47 µM | > 100 µM |  |  | 
O=C(OCCN1C(=O)c2ccccc2C1=O)c1ccc(Cl)nc1 | > 100 µM | > 100 µM |  |  | 
O=C(OCCN1C(=O)c2ccccc2C1=O)c1cccc(F)c1F | > 100 µM | > 100 µM |  |  | 
O=C(OCCc1c[nH]c2ccccc12)c1ccc(Cl)c([N+](=O)[O-])c1 | > 6 µM | 6 µM |  |  | 
